# How the values were obtained:
# Bacillus subtilis [1] = assay: Antibacterial activity against Bacillus subtilis ATCC 6633 after 24 hrs by two fold serial dilution technique; format: functional; conditions: ATCC 6633, 24 h
# Saccharomyces cerevisiae [2] = assay: Antifungal activity against Saccharomyces cerevisiae after 24 hrs by two fold serial dilution technique; format: functional
# Candida albicans [3] = assay: Ratio of ketoconazole MIC to compound MIC for Candida albicans NRRLY-477; format: functional
# Klebsiella pneumoniae [4] = assay: Antibacterial activity against Klebsiella pneumoniae ATCC 13883 after 24 hrs by two fold serial dilution technique; format: functional; conditions: ATCC 13883, 24 h
# Escherichia coli [5] = assay: Antibacterial activity against Escherichia coli ATCC 25922 assessed as diameter of inhibition zone at 1 mg/ml after 24 hrs by agar well diffusion method; format: functional; conditions: ATCC 25922, 24 h, read-out: DIZ
# Klebsiella pneumoniae [6] = assay: Antibacterial activity against Klebsiella pneumoniae ATCC 13883 assessed as diameter of inhibition zone at 1 mg/ml after 24 hrs by agar well diffusion method; format: functional; conditions: ATCC 13883, 24 h, read-out: DIZ
# Bacillus subtilis [7] = assay: Ratio of Ciprofloxacin MIC to compound MIC for Bacillus subtilis ATCC 6633; format: functional
# Candida albicans [8] = assay: Antifungal activity against Candida albicans NRRLY-477 after 24 hrs by two fold serial dilution technique; format: functional; conditions: NRRLY-477, 24 h
# Pseudomonas aeruginosa [9] = assay: Antibacterial activity against Pseudomonas aeruginosa ATCC 27953 after 24 hrs by two fold serial dilution technique; format: functional; conditions: ATCC 27953, 24 h
# Priestia megaterium [10] = assay: Antibacterial activity against Bacillus megaterium ATCC 9885 assessed as diameter of inhibition zone at 1 mg/ml after 24 hrs by agar well diffusion method; format: functional; conditions: ATCC 9885, 24 h, read-out: DIZ
# Candida albicans [11] = assay: Antifungal activity against Candida albicans NRRLY-477 assessed as diameter of inhibition zone at 1 mg/ml after 24 hrs by agar well diffusion method; format: functional; conditions: NRRLY-477, 24 h, read-out: DIZ
# Saccharomyces cerevisiae [12] = assay: Antifungal activity against Saccharomyces cerevisiae assessed as diameter of inhibition zone at 1 mg/ml after 24 hrs by agar well diffusion method; format: functional; conditions: read-out: DIZ
# Micrococcus luteus [13] = assay: Antibacterial activity against Sarcina lutea assessed as diameter of inhibition zone at 1 mg/ml after 24 hrs by agar well diffusion method; format: functional; conditions: read-out: DIZ
# Staphylococcus aureus [14] = assay: Antibacterial activity against Staphylococcus aureus ATCC 29213 after 24 hrs by two fold serial dilution technique; format: functional; conditions: ATCC 29213, 24 h
# Micrococcus luteus [15] = assay: Antibacterial activity against Sarcina lutea after 24 hrs by two fold serial dilution technique; format: functional
# Pseudomonas aeruginosa [16] = assay: Antibacterial activity against Pseudomonas aeruginosa ATCC 27953 assessed as diameter of inhibition zone at 1 mg/ml after 24 hrs by agar well diffusion method; format: functional; conditions: ATCC 27953, 24 h, read-out: DIZ
# Staphylococcus aureus [17] = assay: Antibacterial activity against Staphylococcus aureus ATCC 29213 assessed as diameter of inhibition zone at 1 mg/ml after 24 hrs by agar well diffusion method; format: functional; conditions: ATCC 29213, 24 h, read-out: DIZ
# Escherichia coli [18] = assay: Antibacterial activity against Escherichia coli ATCC 25922 after 24 hrs by two fold serial dilution technique; format: functional; conditions: ATCC 25922, 24 h
# Proteus vulgaris [19] = assay: Antibacterial activity against Proteus vulgaris assessed as diameter of inhibition zone at 1 mg/ml after 24 hrs by agar well diffusion method; format: functional; conditions: read-out: DIZ
# Priestia megaterium [20] = assay: Antibacterial activity against Bacillus megaterium ATCC 9885 after 24 hrs by two fold serial dilution technique; format: functional; conditions: ATCC 9885, 24 h
# Proteus vulgaris [21] = assay: Antibacterial activity against Proteus vulgaris after 24 hrs by two fold serial dilution technique; format: functional
# Bacillus subtilis [22] = assay: Antibacterial activity against Bacillus subtilis ATCC 6633 assessed as diameter of inhibition zone at 1 mg/ml after 24 hrs by agar well diffusion method; format: functional; conditions: ATCC 6633, 24 h, read-out: DIZ
# Staphylococcus aureus [23] = assay: Ratio of Ciprofloxacin MIC to compound MIC for Staphylococcus aureus ATCC 29213; format: functional
# Pseudomonas aeruginosa [24] = assay: Ratio of Ciprofloxacin MIC to compound MIC for Pseudomonas aeruginosa ATCC 27953; format: functional
# Klebsiella pneumoniae [25] = assay: microbe, parasite or virus in culture; conditions: ATCC 13883, 24 h, read-out: DIZ
# Description: Antibacterial activity against Klebsiella pneumoniae ATCC 13883 assessed as diameter of inhibition zone at 0.5 mg/ml after 24 hrs by agar well diffusion method
# Micrococcus luteus [26] = assay: Antibacterial activity against Sarcina lutea assessed as diameter of inhibition zone at 0.5 mg/ml after 24 hrs by agar well diffusion method; format: functional; conditions: read-out: DIZ
# Staphylococcus aureus [27] = assay: microbe, parasite or virus in culture; conditions: ATCC 29213, 24 h, read-out: DIZ
# Description: Antibacterial activity against Staphylococcus aureus ATCC 29213 assessed as diameter of inhibition zone at 0.5 mg/ml after 24 hrs by agar well diffusion method
# Priestia megaterium [28] = assay: Antibacterial activity against Bacillus megaterium ATCC 9885 assessed as diameter of inhibition zone at 0.5 mg/ml after 24 hrs by agar well diffusion method; format: functional; conditions: ATCC 9885, 24 h, read-out: DIZ
# Pseudomonas aeruginosa [29] = assay: microbe, parasite or virus in culture; conditions: ATCC 27953, 24 h, read-out: DIZ
# Description: Antibacterial activity against Pseudomonas aeruginosa ATCC 27953 assessed as diameter of inhibition zone at 0.5 mg/ml after 24 hrs by agar well diffusion method
# Bacillus subtilis [30] = assay: microbe, parasite or virus in culture; conditions: ATCC 6633, 24 h, read-out: DIZ
# Description: Antibacterial activity against Bacillus subtilis ATCC 6633 assessed as diameter of inhibition zone at 0.5 mg/ml after 24 hrs by agar well diffusion method
# Proteus vulgaris [31] = assay: Antibacterial activity against Proteus vulgaris assessed as diameter of inhibition zone at 0.5 mg/ml after 24 hrs by agar well diffusion method; format: functional; conditions: read-out: DIZ
# Candida albicans [32] = assay: Antifungal activity against Candida albicans NRRLY-477 assessed as diameter of inhibition zone at 0.5 mg/ml after 24 hrs by agar well diffusion method; format: functional; conditions: NRRLY-477, 24 h, read-out: DIZ
# Saccharomyces cerevisiae [33] = assay: Antifungal activity against Saccharomyces cerevisiae assessed as diameter of inhibition zone at 0.5 mg/ml after 24 hrs by agar well diffusion method; format: functional; conditions: read-out: DIZ
SMILES,MIC (Bacillus subtilis [1]) [µg/mL],MIC (Saccharomyces cerevisiae [2]) [µg/mL],MIC (Klebsiella pneumoniae [4]) [µg/mL],MIC (Candida albicans [8]) [µg/mL],MIC (Pseudomonas aeruginosa [9]) [µg/mL],MIC (Staphylococcus aureus [14]) [µg/mL],MIC (Micrococcus luteus [15]) [µg/mL],MIC (Escherichia coli [18]) [µg/mL],MIC (Priestia megaterium [20]) [µg/mL],MIC (Proteus vulgaris [21]) [µg/mL],zone of inhibition at 1000 µg/mL (Escherichia coli [5]) [mm],zone of inhibition at 1000 µg/mL (Klebsiella pneumoniae [6]) [mm],zone of inhibition at 1000 µg/mL (Priestia megaterium [10]) [mm],zone of inhibition at 1000 µg/mL (Candida albicans [11]) [mm],zone of inhibition at 1000 µg/mL (Saccharomyces cerevisiae [12]) [mm],zone of inhibition at 1000 µg/mL (Micrococcus luteus [13]) [mm],zone of inhibition at 1000 µg/mL (Pseudomonas aeruginosa [16]) [mm],zone of inhibition at 1000 µg/mL (Staphylococcus aureus [17]) [mm],zone of inhibition at 1000 µg/mL (Proteus vulgaris [19]) [mm],zone of inhibition at 1000 µg/mL (Bacillus subtilis [22]) [mm],other results
O=C(O)CNC(=O)c1ccc(NC(=S)Nc2ccc(C(=O)NCC(=O)O)cc2)cc1,50,50,12.5,12.5,12.5,50,25,12.5,12.5,25,22,23,17,19,18,15,22,22,21,18,
O=C(O)CNC(=O)c1ccc(NC(=S)Nc2ccc(NC(=S)Nc3ccc(C(=O)NCC(=O)O)cc3)cc2)cc1,12.5,25,12.5,12.5,12.5,50,50,25,12.5,25,24,16,24,26,26,10,22,20,18,31,
O=C(O)c1cn(C2CC2)c2cc(N3CCNCC3)c(F)cc2c1=O [CIPROFLOXACIN],6.25,,12.5,,,,12.5,12.5,6.25,12.5,,,,,,,,,,,zone of inhibition at 500 µg/mL (Klebsiella pneumoniae [25]): 25 mm; zone of inhibition at 500 µg/mL (Micrococcus luteus [26]): 20 mm; zone of inhibition at 500 µg/mL (Staphylococcus aureus [27]): 20 mm; zone of inhibition at 500 µg/mL (Priestia megaterium [28]): 24 mm; zone of inhibition at 500 µg/mL (Pseudomonas aeruginosa [29]): 24 mm; zone of inhibition at 500 µg/mL (Bacillus subtilis [30]): 22 mm; zone of inhibition at 500 µg/mL (Proteus vulgaris [31]): 23 mm
CC(=O)N1CCN(c2ccc(OCC3COC(Cn4ccnc4)(c4ccc(Cl)cc4Cl)O3)cc2)CC1 (stereo not given) [KETOCONAZOLE],,3.12,,6.25,,,,,,,,,,,,,,,,,zone of inhibition at 500 µg/mL (Candida albicans [32]): 22 mm; zone of inhibition at 500 µg/mL (Saccharomyces cerevisiae [33]): 23 mm

# More lines, main results first:
MIC (Bacillus subtilis [1]) [µg/mL],MIC (Saccharomyces cerevisiae [2]) [µg/mL],MIC (Klebsiella pneumoniae [4]) [µg/mL],MIC (Candida albicans [8]) [µg/mL],MIC (Pseudomonas aeruginosa [9]) [µg/mL],MIC (Staphylococcus aureus [14]) [µg/mL],MIC (Micrococcus luteus [15]) [µg/mL],MIC (Escherichia coli [18]) [µg/mL],MIC (Priestia megaterium [20]) [µg/mL],MIC (Proteus vulgaris [21]) [µg/mL],SMILES,zone of inhibition at 1000 µg/mL (Escherichia coli [5]) [mm],zone of inhibition at 1000 µg/mL (Klebsiella pneumoniae [6]) [mm],zone of inhibition at 1000 µg/mL (Priestia megaterium [10]) [mm],zone of inhibition at 1000 µg/mL (Candida albicans [11]) [mm],zone of inhibition at 1000 µg/mL (Saccharomyces cerevisiae [12]) [mm],zone of inhibition at 1000 µg/mL (Micrococcus luteus [13]) [mm],zone of inhibition at 1000 µg/mL (Pseudomonas aeruginosa [16]) [mm],zone of inhibition at 1000 µg/mL (Staphylococcus aureus [17]) [mm],zone of inhibition at 1000 µg/mL (Proteus vulgaris [19]) [mm],zone of inhibition at 1000 µg/mL (Bacillus subtilis [22]) [mm],other results
3.12,6.25,6.25,3.12,12.5,6.25,12.5,6.25,3.12,6.25,O=C(O)CNC(=O)c1ccc(NC(=S)Nc2cccc(Br)c2)cc1,27,30,32,30,28,20,22,31,24,30,Ratio (Candida albicans [3]): 2; Ratio (Bacillus subtilis [7]): 2
12.5,25,12.5,12.5,12.5,50,12.5,12.5,12.5,12.5,O=C(O)CNC(=O)c1ccc(NC(=S)Nc2cccc(F)c2)cc1,20,23,27,22,17,20,21,20,25,18,
12.5,3.12,12.5,12.5,3.12,3.12,12.5,6.25,12.5,12.5,O=C(O)CNC(=O)c1ccc(NC(=S)Nc2ccc(S(=O)(=O)Nc3ncccn3)cc2)cc1,32,17,27,25,30,25,34,32,21,26,Ratio (Staphylococcus aureus [23]): 2; Ratio (Pseudomonas aeruginosa [24]): 4
3.12,12.5,12.5,3.12,12.5,6.25,12.5,6.25,6.25,6.25,Nc1n[nH]c(NC(=S)Nc2ccc(C(=O)NCC(=O)O)cc2)c1/N=N/c1ccc(Cl)cc1,28,22,27,30,25,30,28,28,28,32,Ratio (Candida albicans [3]): 2; Ratio (Bacillus subtilis [7]): 2
3.12,12.5,12.5,3.12,12.5,6.25,12.5,6.25,3.12,12.5,O=C(O)CNC(=O)c1ccc(NC(=S)NNS(=O)(=O)c2ccccc2)cc1,29,25,31,32,24,20,23,32,20,30,Ratio (Candida albicans [3]): 2; Ratio (Bacillus subtilis [7]): 2
